Reference: PubChem BioAssay (NCI)
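Dose response: 5 concentrations. Exposure: 48 h. Format: 96-well plates. Endpoint: linear interpolation; highest concentration if not reached. TGI marks complete inhibition of growth.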

Key:
Test in all cases: inhibition of tumour cell growth, NCI panel, 48 h
CAKI-1 renal = system: CAKI-1 renal
SK-OV-3 ovarian = system: SK-OV-3 ovarian
PC-3 prostate = system: PC-3 prostate
EKVX NSCLC = system: EKVX NSCLC
HL-60(TB) leukemia = system: HL-60(TB) leukemia
786-0 renal = system: 786-0 renal
MDA-N = system: MDA-N
IGROV1 ovarian = system: IGROV1 ovarian
LOX IMVI melanoma = system: LOX IMVI melanoma
SR leukemia = system: SR leukemia
OVCAR-8 ovarian = system: OVCAR-8 ovarian
UACC-62 melanoma = system: UACC-62 melanoma
OVCAR-4 ovarian = system: OVCAR-4 ovarian
HCT-116 colon = system: HCT-116 colon
COLO 205 colon = system: COLO 205 colon

Row | Compound | TGI (CAKI-1 renal) [µM] | TGI (SK-OV-3 ovarian) [µM] | TGI (PC-3 prostate) [µM] | TGI (EKVX NSCLC) [µM] | TGI (HL-60(TB) leukemia) [µM] | TGI (786-0 renal) [µM] | TGI (MDA-N) [µM] | TGI (IGROV1 ovarian) [µM] | TGI (LOX IMVI melanoma) [µM] | TGI (SR leukemia) [µM] | TGI (OVCAR-8 ovarian) [µM] | TGI (UACC-62 melanoma) [µM] | TGI (OVCAR-4 ovarian) [µM] | TGI (HCT-116 colon) [µM] | TGI (COLO 205 colon) [µM]
1 | Cn1cc(-c2ccc(CCOC3CCCCO3)cc2)c2c(C#N)cccc21 (stereo not given) | > 100 | > 100 | > 100 | > 100 | > 100 | > 100 | > 100 | > 100 | > 100 | > 100 | > 100 | > 100 | > 100 | > 100 | 67.5
2 | COC(=O)C(Cc1ccccc1)NS(=O)(=O)c1ccc(-c2c3nc(c(-c4ccc(S(=O)(=O)NC(Cc5ccccc5)C(=O)OC)cc4)c4ccc([nH]4)c(-c4ccc(S(=O)(=O)NC(Cc5ccccc5)C(=O)OC)cc4)c4nc(c(-c5ccc(S(=O)(=O)NC(Cc6ccccc6)C(=O)OC)cc5)c5ccc2[nH]5)C=C4)C=C3)cc1 (stereo not given) | > 100 | > 100 | > 100 | > 100 | > 100 | > 100 | > 100 | > 100 | > 100 | > 100 | > 100 | > 100 | > 100 | > 100 | > 100
3 | Cc1ccc(S(=O)(=O)C2=c3ncccc3=C3C(=O)c4ccccc4C(=O)C32)cc1 (stereo not given) | > 100 | > 100 | > 100 | > 100 | > 100 | 50.3 | > 100 | > 62.2 | > 100 | > 100 | > 100 | 69.7 | 64.4 | > 100 | > 100
4 | CS(=O)(=O)C(=Cc1ccccc1Cl)S(C)(=O)=O | > 100 | > 100 | > 100 | > 100 | > 100 | > 100 | > 46.4 | > 100 | > 100 | > 100 | > 100 | > 100 | > 100 | > 100 | > 100
5 | CC(C)(C)OC(=O)C(C1NC(C(=O)O)C(C)(C)S1)N1C(=O)c2ccccc2C1=O (stereo not given) | > 100 | > 100 | > 100 | > 100 | > 100 | > 100 | > 100 | > 100 | > 100 | > 100 | > 100 | > 100 | > 100 | > 100 | > 100
6 | O=[N+]([O-])C(=C1Nc2ccccc2N1)C(Cl)=C(Cl)Cl | > 100 | > 100 | > 100 | > 100 | > 100 | > 100 | > 100 | > 100 | > 100 | > 100 | > 100 | > 100 | > 100 | > 100 | > 100
7 | CCOC(=O)c1sc2nc(SC)nc(Nc3ccc(OC)c(OC)c3)c2c1N | > 100 | 52.9 | > 100 | > 100 | > 100 | > 100 | > 100 | > 100 | > 100 | > 100 | > 100 | > 100 | > 100 | > 100 | > 100
8 | CC(=O)OCCn1c(Cc2ccc([N+](=O)[O-])cc2)nn(C(C)=O)c1=O | > 100 | > 100 | > 100 | > 100 | > 100 | > 100 | > 100 | > 100 | > 100 | > 100 | > 100 | > 100 | > 100 | > 100 | > 100
9 | COc1ccc(OC)c(C2CCc3cnc4nc(N)nc(N)c4c3C2)c1 (stereo not given) | > 100 | > 100 | > 100 | > 100 | > 100 | > 100 | > 100 | > 100 | > 100 | > 100 | > 100 | > 100 | > 100 | > 100 | > 100
10 | Cc1ccc(S(=O)(=O)n2ccn3c(=O)cc(C)nc23)cc1 | > 10 | > 10 | > 10 | > 10 | > 10 | > 10 | > 10 | > 10 | > 10 | > 10 | > 10 | > 10 | > 10 | > 10 | > 10
11 | C=CCCCC1(C)CCCCNC1=O (stereo not given) | > 10 | > 10 | > 10 | > 10 | > 10 | > 10 | > 10 | > 10 | > 10 | > 10 | > 10 | > 10 | > 10 | > 10 | > 10
12 | CC[C@H](CCCCC1CC[C@@H]2CC(=O)C[C@H]12)OC (stereo not given in full) | > 100 | > 100 | > 100 | > 100 | > 100 | > 100 | > 100 | > 100 | > 100 | > 100 | > 100 | > 100 | > 100 | > 100 | > 100
